Data from patent US6277867A, “Pesticide compounds, compositions and process for the preparation thereof” (priority 1995, dated 2001).

Tests used:
[1] = system: resistant house fly, INSEL strain; experiment: Synergistic activity on resistant house fly, INSEL strain; format: in vivo, Musca domestica; conditions: active ingredient alone
Procedure: Investigation of Synergistic Activity on Resistant House Fly (Musca domestica) Populations
Investigation was carried out as described in biological Example 1. LD50 values and synergist ratios were determined as given in Example 2.

[2] = system: flies; experiment: Comparative investigations with known reference synergists on flies treated with carbofuran; format: in vivo; conditions: flies treated with carbofuran and 1000 ng of the synergist
Description: These SR50 ratios were compared to those of the new compounds prepared by us.

[3] = system: cotton bollworm (Helicoverpa armigera); experiment: Synergistic activity on cotton bollworm following topical application; conditions: in vivo
Procedure: Investigation of Synergistic Activity on Cotton Bollworm (Helicoverpa armigera) Following Topical Application
Treatment was performed similarity as described in Example 1. but L2 stadium grubs of cotton bollworms (Helicoverpa armigera) were treated as test animals. From the 24 hour dose--mortality data the LD50 (ng/grub) values were determined using probit analysis. None of the synergists acted at the applied 1000 ng/grub dose. Synergist ratio was calculated as the quotient of the LD50 values of carbofuran administered alone, and with the synergist. The experiments were performed in 2-4 replica.

[4] = system: house fly (Musca domestica); conditions: in vivo, topical_or_ocular, 1440 min
Procedure: Investigation of Synergistic Activity on House Fly (Musca domestica) Following Topical Application
In two parallel experiments 10 female. 2-4 day old house flies were treated on the vental side of their thorax with 0.2 μl of the test solution, with the help of Hamilton MicroLab P microdispenser. Beside fixed synergist dose of 1000 ng/fly the animals were treated with carbofuran at a dose of 20 ng/fly. For solvent cellosolve was used. Selection and counting of the flies were performed under the action of CO2. After treatment the flies were kept in plastic cups covered with tulle. Mortality after 24 hours was expressed in %.

[5] = system: house fly (Musca domestica); experiment: Effect of the active ingredient:synergist ratio on the synergistic activity (flies)
Procedure: Effect of the Active Ingredient:Synergist Ratio on the Synergistic Activity
Treatment was performed as described in Example 1. using Hamilton MicroLab P microdispenser. In two parallel experiments 10 female -3 day old flies were treated on the ventral side of their thorax with 0.2 μl test solution. Beside 1000-400-200-80 ng/fly fixed doses of the synergist they were treated with constant 20 ng/fly CARBOFURAN®. Selection and counting of the flies were performed under the action of CO2. After treatment the flies were kept in plastic cups covered with tulle. After 24 hours mortality % was recorded. Depending on the results the experiments were performed in 2-4 replica.

[6] = carbofuran 20 ng/fly + synergist 80 ng/fly
[7] = carbofuran 20 ng/fly + synergist 200 ng/fly
[8] = carbofuran 20 ng/fly + synergist 400 ng/fly
[9] = house fly, in vivo, topical_or_ocular

Row | Compound | Synergist ratio SR50 [2] | Synergist ratio [3] | mortality % [4] [%] | other results
1 | C=CCC1=C(C)[C@@H](OC(=O)[C@@H]2[C@@H](C=C(C)C)C2(C)C)CC1=O [ESBIOL, reference compound] | – | – | – | LD50 [1]: 10653 ng/fly
2 | C#CCOC(=O)c1cccc2ccccc12 [2-propynyll-naphthyl-carboxylate] | 4.11 | – | – | –
3 | CC#CCOCC1Cc2ccccc2O1 (centres unmarked) [Compound 539, 2-(2-butynyloxy-methyl)-2,3-dihydro-benzofuran] | – | > 5 | 48 | –
4 | C#CCON=C(C)c1cccc2ccccc12 [1-acetonaphthon-oxim (2-propynyl) ether] | 7.79 | – | – | –
5 | CC#CCCOc1cccc2c1OC(C)(C)C2 [Compound 418, 2,3-dihydro-2,2-dimethyl-7-(3-pentynyloxy)-benzofuran] | 20.5 | > 5 | 63 | –
6 | C#CC(C)OCc1cccc2ccccc12 (centres unmarked) [Compound 389] | – | > 5 | 27 | –
7 | 5-[(2-propynyl)-methyl]-1,3-benzodioxole | 10.60 | – | – | –
8 | C#CCOc1cccc2ccccc12 [1-naphthyl 2-propargyl ether] | 6.52 | – | – | –
9 | CC#CCOCc1c(Cl)cccc1Cl [Compound 503, 2,6-Dichloro-1-(2-butynyloxy-methyl)-benzene] | 21.16 | > 5 | 95 | 24 hour mortality (%) [5, 6]: 37%; 24 hour mortality (%) [5, 7]: 50%; 24 hour mortality (%) [5, 8]: 65%; 24 hour mortality (%) [5, 9]: 93%
10 | C#CCCOc1ccc([N+](=O)[O-])cc1 [Compound 547, 1-(3-butynyloxy)-4-nitro-benzene] | – | – | 47 | –
11 | CC#CCCOc1ccc([N+](=O)[O-])cc1 [Compound 540, 1-(3-pentynyloxy)-4-nitro-benzene] | – | > 5 | 60 | –
12 | C#CCCOc1cccc2ccccc12 [1-naphthyl 3-butynyl ether] | 7.95 | – | – | –
13 | C#CCOCc1cccc2ccccc12 [1-naphthylmethyl 2-propynyl ether] | 5.28 | – | – | –
14 | C#CCOCC1COc2ccccc2O1 (centres unmarked) [2-[(2-propynyloxy)methyl]-1,4-benzodioxane] | 5.58 | – | – | –
15 | CC#CCO[C@@H](C)c1ccc2ccccc2c1 [Compound 456, S-(-)-2-[1-(2-butynyloxy)-ethyl]-naphthalene] | – | > 5 | 47 | –
16 | CC#CCNC(=O)c1ccc2c(c1)OCO2 [Compound 523, N-(2-butynyl) 3,4-methylene-dioxy-benzamide] | – | > 5 | 17 | –
17 | C#CCO[C@H](C)c1ccc2ccccc2c1 [Compound 475, R-(+)-2-1[1-(2-propynyloxy)-ethyl]-naphthalene] | – | > 5 | 47 | –
18 | CC#CCO[C@H](C)c1cccc2ccccc12 [Compound 331, R-(+)-1-[1-(2-butynyloxy)-ethyl]-naphthalene] | – | > 5 | 72 | –
19 | CC#CCOC1CCc2ccccc21 (centres unmarked) [Compound 479, 1-(2-Butynyloxy)-indane] | – | > 5 | 58 | –
20 | C#CCOCc1c(Cl)cccc1Cl [(2,6-dichlorophenyl)methyl 2-propynyl ether] | 20.92 | – | – | –
21 | C#CCOc1cccc2c1OC(C)(C)C2 [2,3-dihydro-2,2-dimethyl-7-(2-propynyloxy)benzofurane] | 1.8 | – | – | –
22 | CC#CCOC(c1cccc2ccccc12)C(C)C (centres unmarked) [Compound 472, 1-[2-methyl-1-(2-butynyloxy)-propyl]-naphthalene] | – | > 5 | 68 | –
23 | C#CCCOc1cccc2c1OC(C)(C)C2 [Compound 377, 2,3-dihydro, 2,2-dimethyl-7-(3-butynyloxy)-benzofuran] | – | > 5 | 57 | –

Row | Compound | Synergist ratio SR50 [2] | Synergist ratio [3] | mortality % [4] [%] | other results
24 | CC#CCN1C(=O)c2ccccc2C1=O [Compound 537, N-(But-2-ynyl)-phthalimide] | – | > 5 | – | –
25 | CC#CCOC(c1ccccc1)c1ccc2c(c1)OCO2 (centres unmarked) [Compound 555, 5-[(But-2-ynyloxy)-phenyl-methyl]-1,3-benzodioxole] | – | > 5 | 90 | –
26 | CC#CCOC(C)c1ccc2ccccc2c1 (centres unmarked) [Compound 293, 2-[1-(2-butynyloxy)-ethyl]-naphthalene] | – | > 5 | 45 | –
27 | CC#CCON=C(C)c1ccc(OC)c(OC)c1 [Compound 572, 3,4-Dimethoxy-acetophenonoxym-(2-butynyl)-ether] | – | > 5 | 55 | –
28 | CC#CCOCC1COc2ccccc2O1 (centres unmarked) [Compound 510, 2-[(2-Butynyloxy)-methyl]-1,4-benzodioxane] | 18.32 | > 5 | 75 | –
29 | CC#CCOC(=O)c1ccc2c(c1)OCO2 [Compound 502, 2-Butynyl 1,3-benzodioxol-5-carboxylate] | 6.28 | > 5 | 47 | –
30 | CC#CCO[C@@H](C)c1cccc2ccccc12 [Compound 330, S-(-)-1-[1-(2-butynyloxy)-ethyl]-naphthalene] | – | > 5 | 62 | –
31 | CC#CCNC(=O)c1ccc2ccccc2c1 [Compound 535, N-(2-Butynyl)-2-naphthamide] | – | > 5 | 27 | –
32 | C#CCOC(C)c1ccc2ccccc2c1 (centres unmarked) [Compound 256, 2-[1-(2-propynyloxy)-ethyl]-naphthalene] | – | > 5 | 32 | –
33 | C#CCO[C@@H](C)c1ccc2ccccc2c1 [Compound 474, S-(-)-2-[1-(2-propynyloxy)-ethyl]-naphthalene] | – | > 5 | 50 | –
34 | CC#CCCOc1ccc2ccccc2c1 [2-naphthyl 3-pentynyl ether] | 9.97 | – | – | –
35 | CC#CCOC(CC)c1cccc2ccccc12 (centres unmarked) [Compound 454, 1-[1-(2-butynyloxy)-propyl]-naphthalene] | – | > 5 | 75 | 24 hour mortality (%) [5, 6]: 40%; 24 hour mortality (%) [5, 7]: 45%; 24 hour mortality (%) [5, 8]: 60%; 24 hour mortality (%) [5, 9]: 75%
36 | CC#CCO[C@H](C)c1ccc2ccccc2c1 [Compound 455, R-(+)-2-[1-(2-butynyloxy)-ethyl]-naphthalene] | – | > 5 | 70 | 24 hour mortality (%) [5, 6]: 25%; 24 hour mortality (%) [5, 7]: 48%; 24 hour mortality (%) [5, 8]: 63%; 24 hour mortality (%) [5, 9]: 77%
37 | CC#CCOC1CCCc2ccccc21 (centres unmarked) [Compound 498, 1-(2-Butynyloxy)-1,2,3,4-tetrahydro-naphthalene] | – | > 5 | 70 | –
38 | C#CCN(C)C(C)c1ccc2ccccc2c1 (stereo not drawn) [Compound 251, N-α-dimethyl-N-2-propynyl-β-naphthyl-methylamine] | – | > 5 | 37 | –
39 | CC#CCNC(=O)c1cccc2ccccc12 [Compound 542, N-(2-Butynyl)-1-naphthamide] | – | > 5 | 42 | –
40 | C#CCOC(=O)c1ccc2c(c1)OCO2 [Compound 501, 2-Propynyl 1,3-benzodioxol-5-carboxylate] | – | > 5 | 53 | 24 hour mortality (%) [5, 6]: 60%; 24 hour mortality (%) [5, 7]: 75%; 24 hour mortality (%) [5, 8]: 80%; 24 hour mortality (%) [5, 9]: 80%
41 | C#CCNC(=O)c1cccc2ccccc12 [Compound 541, N-(2-Propynyl)-1-naphthamide] | – | > 5 | 46 | –
42 | C#CCOCc1ccc(OC)c(OC)c1 [(2-propynyloxy-methyl)-3,4-dimethoxy-benzene] | 6.58 | – | – | –
43 | CC#CCON=C(C)c1cccc2ccccc12 [Compound 571, 1-Aceto-naphthon-oxim-(2-butynyl)-ether] | 10.02 | > 5 | 53 | –
44 | CC#CCOc1ccc2ccccc2c1 [2-naphthyl 2-butynyl ether] | 7.72 | – | – | –
45 | CC#CCOC(c1ccc2c(c1)OCO2)C1CCCCC1 (centres unmarked) [Compound 554, 5-[(But-2-ynyloxy)-cyclohexyl-methyl]-1,3-benzodioxole] | – | > 5 | 58 | –
46 | CC#CCOC(C)c1cccc2ccccc12 (centres unmarked) [Compound 292, 1-[1-(2-butynyloxy)-ethyl]-naphthalene] | – | > 5 | 72 | –
